In one experiment the target is human COX-2 (Homo sapiens (Human), UniProt P35354). In kind it is biochemical. The settings on record: read-out: COX-2 IC50 (μM) enzyme.
The next experiment addresses COX-2 (Mus musculus (Mouse), UniProt Q05769). Description: Cell-based COX-2 assay (PGE2 in LPS/IFN-g stimulated RAW264.7 cells). The settings on record: RAW264.7 murine macrophages, LPS + IFN-g, PGE2 readout. The procedure:
Cell culture: RAW264.7 murine macrophages are obtained from the Cell Bank of Shanghai Institute of Biochemistry and Cell Biology, Chinese Academy of Sciences (Shanghai, China) and cultured in Dulbecco's modified Eagle's medium containing 100 U/ml penicillin and 100 µg/ml streptomycin at 37° C. in 5% CO2.
The cells are pre-incubated for 30 min with various doses of compounds and stimulated for 7 h with […] LPS and 10 U/ml IFN-g. The cell culture supernatants are collected immediately following treatment and centrifuged at 1,000 rpm for 5 min to remove the particulate matter. PGE2 is determined using a Prostaglandin E2 assay kit (catalog no. 62P2APEB; Cisbio Co.). […] Replace the standard by 10 μL of diluent and PGE2-d2 by 5 μL of reconstitution buffer, Cal0 (for positive control), replace the standard by 10 µL of diluent. Incubate at 4° C. overnight.
(§1) Dose-response curves are generated using XLFit (IDBS, Surrey, UK) or Prism (GraphPad Software, La Jolla, CA, US) to calculate IC50 values for each compound tested.

For the next experiment, the target named is ovine COX-1 (Ovis aries (Sheep), UniProt P05979). The experiment in a line: COX-1/-2 enzyme assay (EIA kit), COX-1. As to conditions: ovine COX-1 enzyme immunoassay. In kind it is biochemical. The method, then:
COX-1/-2 enzyme assay: The ability of compounds to inhibit ovine COX-1 and human COX-2 is determined using a commercially available enzyme immunoassay (EIA) kit (catalog no. 701090 (COX-1); 701080 (COX-2) Cayman Chemical Co., Ann Arbor, MI, USA) according to the manufacturer's protocol. COX catalyzes the first step in the biosynthesis of AA to PGH2. PGF2α, produced from PGH2 by reduction with stannous chloride, was measured by EIA (ACE™ competitive EIA, Cayman Chemical, Ann Arbor, MI, USA). Briefly, to a series of supplied reaction buffer solutions [960 μl 0.1 M Tris-HCl (pH 8.0) containing 5 mM EDTA and 2 mM phenol] with either COX-1 or COX-2 (10 μl) enzyme in the presence of heme (10 μl), 10 μl of various concentrations of test drug solutions are added. These solutions are incubated for 15 min at 37° C. and subsequently 10 μl AA solution (100 μM) is added. The COX reaction is stopped by the addition of 30 μl stannous chloride after 2 min, mixed immediately, supernatants are 2000-fold diluted. The produced PGF2α is measured by EIA. This assay is based on the competition between PGs and a PG-acetylcholinesterase conjugate (PG tracer) for a limited amount of PG antiserum. The amount of PG tracer that is able to bind to the PG antiserum is inversely proportional to the concentration of PGs in the wells since the concentration of the PG tracer is held at a constant while the concentration of PGs varies. The specific antiserum-PG complex binds to a mouse anti-rabbit IgG that had been previously attached to the well. The plate is washed to remove any unbound reagents and 200 μl Ellman's reagent (5,5′-dithiobis-(2-nitrobenzoic acid), which contains the substrate to acetylcholine esterase, is added to the well. The product of this enzymatic reaction generates a distinct yellow color that absorbs at 406 nm. The intensity of this color, determined by spectrophotometry, is proportional to the amount of PG tracer bound to the well, which is inversely proportional to the amount of PGs present in the well during the incubation. Percent inhibition is calculated by the comparison of the compounds treated to the various control incubations.
as §1

SMILES strings stand for the structures.

Sequence of COX-2 (Q05769 18-604): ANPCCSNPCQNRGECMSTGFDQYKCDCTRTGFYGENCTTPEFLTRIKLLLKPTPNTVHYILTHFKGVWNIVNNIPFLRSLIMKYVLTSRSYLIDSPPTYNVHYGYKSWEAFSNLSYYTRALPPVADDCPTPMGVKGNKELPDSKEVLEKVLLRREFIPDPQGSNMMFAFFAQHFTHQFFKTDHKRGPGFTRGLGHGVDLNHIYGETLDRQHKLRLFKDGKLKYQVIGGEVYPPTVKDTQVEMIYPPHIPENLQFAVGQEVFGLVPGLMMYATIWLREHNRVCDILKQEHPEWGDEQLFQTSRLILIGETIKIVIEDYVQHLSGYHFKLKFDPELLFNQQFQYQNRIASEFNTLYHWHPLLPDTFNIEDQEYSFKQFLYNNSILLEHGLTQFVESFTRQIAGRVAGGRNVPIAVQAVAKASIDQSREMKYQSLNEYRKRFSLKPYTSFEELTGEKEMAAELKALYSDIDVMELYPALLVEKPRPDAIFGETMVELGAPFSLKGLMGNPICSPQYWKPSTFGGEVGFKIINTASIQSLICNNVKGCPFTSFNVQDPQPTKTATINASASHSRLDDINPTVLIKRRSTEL
Sequence of human COX-2 (P35354 18-604 limits assumed): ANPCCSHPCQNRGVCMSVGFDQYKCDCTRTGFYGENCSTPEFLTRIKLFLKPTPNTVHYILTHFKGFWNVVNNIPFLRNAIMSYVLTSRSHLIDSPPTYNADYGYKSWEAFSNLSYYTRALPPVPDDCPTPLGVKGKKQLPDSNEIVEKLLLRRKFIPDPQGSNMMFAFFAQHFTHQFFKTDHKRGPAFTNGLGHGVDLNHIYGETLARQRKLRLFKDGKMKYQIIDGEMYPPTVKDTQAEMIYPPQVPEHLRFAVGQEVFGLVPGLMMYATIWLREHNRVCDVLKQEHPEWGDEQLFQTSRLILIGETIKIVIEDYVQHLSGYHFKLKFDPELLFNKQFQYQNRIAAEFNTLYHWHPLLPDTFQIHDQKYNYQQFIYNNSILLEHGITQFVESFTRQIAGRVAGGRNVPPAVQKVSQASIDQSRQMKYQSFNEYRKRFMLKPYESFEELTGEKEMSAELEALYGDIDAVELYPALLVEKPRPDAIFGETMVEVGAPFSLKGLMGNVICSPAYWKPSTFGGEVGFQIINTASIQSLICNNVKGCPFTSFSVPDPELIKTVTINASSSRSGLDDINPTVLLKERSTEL
Sequence of ovine COX-1 (P05979 25-600 limits assumed): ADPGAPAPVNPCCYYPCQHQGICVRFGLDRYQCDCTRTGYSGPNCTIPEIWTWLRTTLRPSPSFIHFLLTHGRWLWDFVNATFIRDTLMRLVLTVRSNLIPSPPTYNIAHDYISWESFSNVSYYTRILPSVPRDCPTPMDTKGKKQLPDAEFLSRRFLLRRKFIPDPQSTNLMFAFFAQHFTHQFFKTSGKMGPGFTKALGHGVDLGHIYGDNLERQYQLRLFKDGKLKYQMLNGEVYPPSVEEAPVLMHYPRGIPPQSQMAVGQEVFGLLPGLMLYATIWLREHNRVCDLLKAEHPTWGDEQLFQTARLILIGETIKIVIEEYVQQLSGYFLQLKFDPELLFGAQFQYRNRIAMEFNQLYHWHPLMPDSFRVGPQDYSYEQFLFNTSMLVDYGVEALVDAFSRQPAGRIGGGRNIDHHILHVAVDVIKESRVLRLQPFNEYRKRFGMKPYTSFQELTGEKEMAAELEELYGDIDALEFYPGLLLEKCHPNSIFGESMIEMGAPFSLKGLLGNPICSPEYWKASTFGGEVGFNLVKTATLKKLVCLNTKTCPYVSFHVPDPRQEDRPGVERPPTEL

For `NS(=O)(=O)c1ccc(-n2nc(CCCCCN3CC[S][Re]4(=[O])[S]CC[N]4CC3)cc2-c2ccc(F)cc2)cc1` (stereo not drawn) [Compound 2], the IC50 (usually the concentration that gives 50% inhibition) is 1.33 µM at human COX-2 and 0.66 µM at COX-2.
For the molecule `NS(=O)(=O)c1ccc(-n2nc(CCCCCCCN3CC[S][Re]4(=[O])[S]CC[N]4CC3)cc2-c2ccc(F)cc2)cc1` (stereo not drawn) [Compound 3], the IC50 at human COX-2 was greater than 10 µM.
With `NS(=O)(=O)c1ccc(-n2nc(CCCCCCCCN3CC[S][Re]4(=[O])[S]CC[N]4CC3)cc2-c2ccc(F)cc2)cc1` (stereo not drawn) [Compound 4], the results for the IC50 on human COX-2 and on COX-2 were 0.59 µM and 0.32 µM, respectively.
Regarding `NS(=O)(=O)c1ccc(-n2nc(CCCCCCCCC[N+]34CC[S][Re]35(=[O])[S]CC[N]5CC4)cc2-c2ccc(F)cc2)cc1` (stereo not drawn) [Compound 5], the IC50 on human COX-2 is 0.13 µM; at COX-2, 0.15 µM; against ovine COX-1, greater than 10 µM.
In the case of `NS(=O)(=O)c1ccc(-n2nc(CCCCCCN3CC[S][Re]4(=[O])[S]CC[N]4CC3)cc2-c2ccc(Cl)cc2)cc1` (stereo not drawn) [Compound 6], at human COX-2, the half-inhibitory concentration (IC50) was 3.31 µM.
Same read-out and setting: the value for `NS(=O)(=O)c1ccc(-n2nc(CCCCCCCN3CC[S][Re]4(=[O])[S]CC[N]4CC3)cc2-c2ccc(Cl)cc2)cc1` (stereo not drawn) [Compound 7] was greater than 10 µM.
`NS(=O)(=O)c1ccc(-n2nc(CCCCCCCCC[N+]34CC[S][Re]35(=[O])[S]CC[N]5CC4)cc2-c2ccc(Cl)cc2)cc1` (stereo not drawn) [Compound 8]: the IC50 at human COX-2 worked out at 0.19 µM; at COX-2, 0.2 µM.
The like results for `NS(=O)(=O)c1ccc(-n2nc(CCCCCCCCN3CC[S][Re]4(=[O])[S]CC[N]4CC3)cc2-c2ccc(Cl)cc2)cc1` (stereo not drawn) [Compound 9] were, in that order, 0.11 µM and 0.19 µM.
As to `COc1ccc(-c2cc(CCCCCCCCC[N+]34CC[S][Re]35(=[O])[S]CC[N]5CC4)nn2-c2ccc(S(N)(=O)=O)cc2)cc1` (stereo not drawn) [Compound 10], the figures for the IC50 at human COX-2, at COX-2 and on ovine COX-1 were 0.06 µM, 0.16 µM and greater than 10 µM, respectively.
Take `Cc1ccc(-c2cc(CCCCCCCCCN3CC[S][Re]4(=[O])[S]CC[N]4CC3)nn2-c2ccc(S(N)(=O)=O)cc2)cc1` (stereo not drawn) [Compound 11]: the 50% inhibitory concentration (IC50) at human COX-2 is 4.49 µM; on COX-2, 0.2 µM.
With `NS(=O)(=O)c1ccc(-n2nc(COCCCCCC[N+]34CC[S][Re]35(=[O])[S]CC[N]5CC4)cc2-c2ccc(F)cc2)cc1` (stereo not drawn) [Compound 14], the IC50 on human COX-2 amounted to 2.36 µM.
Still for that read-out and setting: next, `NS(=O)(=O)c1ccc(-n2nc(COCCCC[N+]34CC[S][Re]35(=[O])[S]CC[N]5CC4)cc2-c2ccc(F)cc2)cc1` (stereo not drawn) [Compound 15]: 2.37 µM.
`NS(=O)(=O)c1ccc(-n2nc(COCCCCCCC[N+]34CC[S][Re]35(=[O])[S]CC[N]5CC4)cc2-c2ccc(F)cc2)cc1` (stereo not drawn) [Compound 16]: the results for the IC50 at human COX-2, on COX-2 and at ovine COX-1 were 0.31 µM, 0.21 µM and greater than 10 µM, respectively.
Take `NS(=O)(=O)c1ccc(-n2nc(COCCCOCCCN3CC[S][Re]4(=[O])[S]CC[N]4CC3)cc2-c2ccc(F)cc2)cc1` (stereo not drawn) [Compound 17]: the IC50 at human COX-2 amounted to 4.15 µM.
Still for that read-out and setting: next, `NS(=O)(=O)c1ccc(-n2nc(COCCCCCCN3CC[S][Re]4(=[O])[S]CC[N]4CC3)cc2-c2ccc(Cl)cc2)cc1` (stereo not drawn) [Compound 18]: greater than 10 µM; `COc1ccc(-c2cc(COCCCCCCN3CC[S][Re]4(=[O])[S]CC[N]4CC3)nn2-c2ccc(S(N)(=O)=O)cc2)cc1` (stereo not drawn) [Compound 19]: 4.51 µM.
On to `COc1ccc(-c2cc(COCCCCCCCN3CC[S][Re]4(=[O])[S]CC[N]4CC3)nn2-c2ccc(S(N)(=O)=O)cc2)cc1` (stereo not drawn) [Compound 20], for which the results for the IC50 on human COX-2 and on COX-2 were 0.54 µM and 0.22 µM, respectively.
On the same counts, the results for `Cc1ccc(-c2cc(COCCCCCCC[N+]34CC[S][Re]35(=[O])[S]CC[N]5CC4)nn2-c2ccc(S(N)(=O)=O)cc2)cc1` (stereo not drawn) [Compound 21] are 2.48 µM and 0.15 µM.
The like results for `NS(=O)(=O)c1ccc(-c2c(-c3ccccc3)noc2CCCCCC[N+]23CC[S][Re]24(=[O])[S]CC[N]4CC3)cc1` (stereo not drawn) [Compound 26] were, in that order, 0.16 µM and 0.23 µM.
As for `NS(=O)(=O)c1ccc(-c2c(-c3ccccc3)noc2CCCCCCC[N+]23CC[S][Re]24(=[O])[S]CC[N]4CC3)cc1` (stereo not drawn) [Compound 27], the figures for the IC50 at human COX-2, on COX-2 and against ovine COX-1 were 0.07 µM, 0.07 µM and greater than 10 µM, respectively.
Consider `NS(=O)(=O)c1ccc(-c2c(-c3ccccc3)noc2CCCCCCCCC[N+]23CC[S][Re]24(=[O])[S]CC[N]4CC3)cc1` (stereo not drawn) [Compound 28], for which the IC50 is 0.019 µM on human COX-2, 0.025 µM on COX-2 and greater than 10 µM on ovine COX-1.

These data come from US20250255992A1, “COXIB-DERIVED CONJUGATE COMPOUNDS AND METHODS OF USE THEREOF” (Reiley Pharmaceuticals, Inc., priority 2020, published 2025).
